Measured values from ChEMBL document CHEMBL5108002, “Design, synthesis, and biological evaluation of novel 7-substituted 10,11-methylenedioxy-camptothecin derivatives against drug-resistant small-cell lung cancer in vitro and in vivo” (Eur J Med Chem, 2022).
The source made the active and inactive calls. The rule behind the calls is not given here.

How the values were obtained:
[1] = tested on: NCI-H446; assay: Induction of apoptosis in human NCI-H446 cells assessed as downregulation of survivin protein expression at 0.1 to 100 nM measured for 48 hrs by Western blot analysis; format: functional, cell-based; conditions: dose 0.1-100 nM
[2] = tested on: NCI-H446; assay: Antitumor activity against etoposide/cisplatin combination-resistant human NCI-H446 cells xenografted in BALB/c nude mouse assessed as tumor growth inhibition at 3 mg/kg, IG administered once a week and measured 3 times a week relative to control; format: functional; conditions: NCI-H446, po, read-out: TGI
[3] = tested on: H69AR; assay: Induction of apoptosis in human NCI-H69AR cells assessed as inhibition of Bcl-2 protein expression at 0.1 to 100 nM incubated for 24 hrs by Western blot analysis; format: functional, cell-based; conditions: dose 0.1-100 nM
[4] = tested on: NCI-H446; assay: Induction of apoptosis in human NCI-H446 cells assessed as increase in cleaved-caspase 9 protein expression at 0.1 to 100 nM measured after 24 to 48 hrs by Western blot analysis; format: functional, cell-based; conditions: dose 0.1-100 nM, time 24-48 hrs
[5] = tested on: NCI-H69; assay: Induction of apoptosis in human NCI-H69 cells assessed as inhibition of Bcl-2 protein expression at 0.1 to 100 nM incubated for 24 hrs by Western blot analysis; format: functional, cell-based; conditions: dose 0.1-100 nM
[6] = tested on: NCI-H446; assay: Antitumor activity against etoposide/cisplatin combination-resistant human NCI-H446 cells xenografted in BALB/c nude mouse assessed as average tumor mass at 3 mg/kg, IG administered once a week and measured 3 times a week; format: functional
[7] = Toxicity in BALB/c nude mouse xenografted with Irinotecan-resistant human NCI-H446 cells assessed as reduction in body weight at 3 mg/kg, IG administered once a week and measured 3 times a week for 35 days; format: organism-based; conditions: in vivo, po, 840 h, time 35 day
[8] = tested on: NCI-H446; assay: Induction of apoptosis in human NCI-H446 cells assessed as inhibition of Bcl-2 protein expression incubated for 24 hrs by Western blot analysis; format: functional, cell-based; conditions: dose 0.1-100 nM
[9] = tested on: NCI-H69; assay: Induction of apoptosis in human NCI-H69 cells assessed as reduction in Mcl-1 mRNA expression at 0.1 to 100 nM incubated for 24 hrs by RT-PCR analysis; format: functional, cell-based; conditions: dose 0.1-100 nM
[10] = tested on: H69AR; assay: Induction of apoptosis in human NCI-H69AR cells assessed as increase in cleaved-caspase 9 protein expression at 0.1 to 100 nM measured after 24 hrs by Western blot analysis; format: functional, cell-based; conditions: dose 0.1-100 nM
[11] = tested on: NCI-H446; assay: Induction of apoptosis in human NCI-H446 cells assessed as early apoptotic cells at 1 nM incubated for 24 hrs by AnnexinV-FITC/PI staining based flow cytometry analysis (reference value: 3.1 %); format: functional
[12] = tested on: MCF7; assay: Antiproliferative activity against human MCF7 cells assessed as inhibition of cell growth incubated for 72 hrs by SRB assay; format: functional, cell-based; conditions: MCF7, 72 h
[13] = tested on: H69AR; assay: Induction of apoptosis in human NCI-H69AR cells assessed as late apoptotic cells at 1 nM incubated for 24 hrs by AnnexinV-FITC/PI staining based flow cytometry analysis (reference value: 2.99 %); format: functional
[14] = tested on: Bel-7402; assay: Antiproliferative activity against human Bel-7402 cells assessed as inhibition of cell growth incubated for 72 hrs by SRB assay; format: functional, cell-based; conditions: Bel-7402, 72 h
[15] = tested on: 2008; assay: Antiproliferative activity against human 2008 cells assessed as inhibition of cell growth incubated for 72 hrs by SRB assay; format: functional, cell-based; conditions: Homo sapiens, 2008, 72 h
[16] = tested on: NCI-H446; assay: Induction of apoptosis in human NCI-H446 cells assessed as reduction in Mcl-1 mRNA level at 0.1 to 100 nM incubated for 24 hrs by RT-PCR analysis; format: functional, cell-based; conditions: dose 0.1-100 nM
[17] = tested on: H69AR; assay: Induction of apoptosis in human NCI-H69AR cells assessed as increase in cleaved-caspase 3 protein expression at 0.1 to 100 nM measured after 24 hrs by Western blot analysis; format: functional, cell-based; conditions: dose 0.1-100 nM
[18] = tested on: NCI-H446; assay: Induction of apoptosis in human NCI-H446 cells assessed as late apoptotic cells at 1 nM incubated for 24 hrs by AnnexinV-FITC/PI staining based flow cytometry analysis (reference value: 0.37 %); format: functional
[19] = tested on: NCI-H446; assay: Induction of apoptosis in human NCI-H446 cells assessed as early apoptotic cells at 0.1 nM incubated for 24 hrs by AnnexinV-FITC/PI staining based flow cytometry analysis (reference value: 3.1 %); format: functional
[20] = tested on: NCI-H446; assay: Antitumor activity against human NCI-H446 cells xenografted in BALB/c nude mouse assessed as tumor growth inhibition at 0.75 mg/kg, IG administered once a week for 28 days by electronic caliper method relative to control; format: functional; conditions: NCI-H446, po, 672 h, time 28 day, read-out: TGI
[21] = tested on: H69AR; assay: Induction of apoptosis in human NCI-H69AR cells assessed as dead cells at 1 nM incubated for 24 hrs by AnnexinV-FITC/PI staining based flow cytometry analysis (reference value: 1.92 %); format: functional
[22] = tested on: H69AR; assay: Induction of apoptosis in human NCI-H69AR cells assessed as reduction in XIAP mRNA expression at 0.1 to 100 nM incubated for 24 hrs by RT-PCR analysis; format: functional, cell-based; conditions: dose 0.1-100 nM
[23] = tested on: H69AR; assay: Antiproliferative activity against human NCI-H69AR cells assessed as inhibition of cell growth incubated for 72 hrs by SRB assay; format: functional, cell-based
[24] = tested on: NCI-H69; assay: Induction of apoptosis in human NCI-H69 cells assessed as inhibition of survivin protein expression at 0.1 to 100 nM incubated for 24 hrs by Western blot analysis; format: functional, cell-based; conditions: dose 0.1-100 nM
[25] = tested on: Mus musculus; assay: Downregulation of Mcl-1 protein expression in tumor of BALB/c mouse xenografted with human NCI-H446 cells at 0.75 mg/kg, IG administered intragastrically once a week for 28 days by western blot analysis; format: functional, organism-based; conditions: time 28.0 day
[26] = tested on: Mus musculus; assay: Downregulation of Bcl-2 protein expression in tumor of BALB/c mouse xenografted with human NCI-H446 cells at 0.75 mg/kg, IG administered intragastrically once a week for 28 days by western blot analysis; format: functional, organism-based; conditions: time 28.0 day
[27] = tested on: NCI-H446; assay: Induction of apoptosis in human NCI-H446 cells assessed as reduction in XIAP mRNA level at 0.1 to 100 nM incubated for 24 hrs by RT-PCR analysis; format: functional, cell-based; conditions: dose 0.1-100 nM
[28] = tested on: NCI-H446; assay: Induction of apoptosis in human NCI-H446 cells assessed as inhibition of XIAP protein expression incubated for 24 hrs by Western blot analysis; format: functional, cell-based; conditions: dose 0.1-100 nM
[29] = tested on: NCI-H446; assay: Antitumor activity against human NCI-H446 cells xenografted in BALB/c nude mouse assessed as reduction in large tumor growth at 3 mg/kg, IG administered for 31 days by electronic caliper method; format: functional, organism-based; conditions: time 31.0 day
[30] = tested on: NCI-H446; assay: Antitumor activity against human NCI-H446 cells xenografted in BALB/c nude mouse assessed as tumor growth inhibition at 1.5 mg/kg, IG administered once a week for 28 days by electronic caliper method relative to control; format: functional; conditions: NCI-H446, po, 672 h, time 28 day, read-out: TGI
[31] = tested on: NCI-H446; assay: Induction of apoptosis in human NCI-H446 cells assessed as reduction in Bcl-2 mRNA level at 0.1 to 100 nM incubated for 24 hrs by RT-PCR analysis; format: functional, cell-based; conditions: dose 0.1-100 nM
[32] = tested on: NCI-H446; assay: Induction of apoptosis in human NCI-H446 cells assessed as inhibition of Mcl-1 protein expression incubated for 24 hrs by Western blot analysis; format: functional, cell-based; conditions: dose 0.1-100 nM
[33] = tested on: H69AR; assay: Induction of apoptosis in human NCI-H69AR cells assessed as inhibition of Mcl-1 protein expression at 0.1 to 100 nM incubated for 24 hrs by Western blot analysis; format: functional, cell-based; conditions: dose 0.1-100 nM

For `CC[C@@]1(O)C(=O)OCc2c1cc1n(c2=O)Cc2c-1nc1cc3c(cc1c2-c1ccoc1)OCO3`, the Activity [1] was “Active”, the inhibition in vivo at 3 mg/kg [2] was 84.5% and the inhibition [3] was “Active”. The Activity [4] was “Active”, the inhibition [5] was “Active” and the Activity [6] was 0.23 g. For the same compound, the Activity [7] was “Non-Toxic”, the inhibition [8] was “Active” and the Activity [9] was “Active”. For the same compound, the Activity [10] was “Active”, the Activity [11] was 13.08% and the IC50 [12] was 9.49 nM. For the same compound, the Activity [13] was 7.02%, the IC50 [14] was 3.8 nM and the IC50 [15] was 10.2 nM. For the same compound, the Activity [16] was “Active”, the Activity [17] was “Active” and the Activity [18] was 9.6%. It also gave an Activity [19] of 7%, an inhibition in vivo at 0.75 mg/kg [20] of 40.4% and an Activity [21] of 2.61%. The Activity [22] was “Active”, the IC50 [23] was 5.57 nM and the inhibition [24] was “Active”. For the same compound, the Activity [25] was “Active”, the Activity [26] was “Active” and the Activity [27] was “Active”. For the same compound, the inhibition [28] was “Active”, the Activity [29] was “Active” and the inhibition in vivo at 1.5 mg/kg [30] was 73.7%. The Activity [31] was “Active”, the inhibition [32] was “Active” and the inhibition [33] was “Active”.
